From patent US9456971B2, “Moisturizer and cosmetic agent containing same” (AJINOMOTO CO., INC., priority 2012, dated 2016) come the findings set out here.

What all share (type): physicochemical
A short description of series [1]: Evaluation of moisturizer: hygroscopicity. The following applies: A(%)=([2]−[1])/[1]×100; vacuum-dried sample allowed to absorb moisture at 65% RH, 25° C. for 14 days. As for the experimental part:
(§1) To study the hygroscopicity and water retention ability of moisturizers, the following experiment was performed.
Decanoyl proline sodium obtained in Synthetic Example 2, betaine (“aminocoat” manufactured by Asahi Kasei Corporation), sodium lactate (manufactured by Wako), sodium pyrrolidonecarboxylate (“AJIDEW” NL-50 manufactured by Ajinomoto Co., Inc.), glycerol (“concentrated glycerin” manufactured by Kao Corporation), and sorbitol (manufactured by Kao Corporation) were each dried under vacuum. The moisture level of the samples was measured by Karl Fischer moisture meter, the amount of water was determined, and the weight other than the moisture level was calculated ([1]). Thereafter, the samples were allowed to absorb moisture under the conditions of 65% RH, 25° C. for 14 days, and the weight was measured ([2]). Thereafter, the samples were dried under the conditions of 35% RH, 25° C. for 14 days, and the weight was measured ([3]).
• A(%)=([2]−[1])/[1]×100 was calculated and the samples were evaluated according to the following criteria. • ⊙: value of A is not less than 15% • ◯: value of A is not less than 12% and less than 15% • Δ: value of A is not less than 10% and less than 12% • ×: value of A is less than 10% [Water Retention Ability] • R(%)=[3]/[2]×100 was calculated and the samples were evaluated according to the following criteria. • ⊙: value of R is not less than 80% • ◯: value of R is not less than 60% and less than 80% • Δ: value of R is not less than 40% and less than 60% • ×: value of R is less than 40%

Series [2] is described as follows: Evaluation of moisturizer: water retention ability. Conditions: R(%)=[3]/[2]×100; after moisture absorption, dried at 35% RH, 25° C. for 14 days. As to the method:
as §1
Decanoyl proline sodium obtained in Synthetic Example 2, betaine (“aminocoat” manufactured by Asahi Kasei Corporation), sodium lactate (manufactured by Wako), sodium pyrrolidonecarboxylate (“AJIDEW” NL-50 manufactured by Ajinomoto Co., Inc.), glycerol (“concentrated glycerin” manufactured by Kao Corporation), and sorbitol (manufactured by Kao Corporation) were each dried under vacuum. The moisture level of the samples was measured by Karl Fischer moisture meter, the amount of water was determined, and the weight other than the moisture level was calculated ([1]). Thereafter, the samples were allowed to absorb moisture under the conditions of 65% RH, 25° C. for 14 days, and the weight was measured ([2]). Thereafter, the samples were dried under the conditions of 35% RH, 25° C. for 14 days, and the weight was measured ([3]). […]

The nature of series [3]: Stability against decomposition (acceleration test, HPLC). Conditions: 30.0 wt % in water, 70° C. for 22 days. As for the experimental part: Solutions of the compound of Synthetic Example 2 (decanoyl proline Na, 30.0 wt %) in water with or without addition of etidronate to 0.1 wt % were prepared, and they were subjected to an acceleration test at 70° C. for 22 days. The decomposition rate of the compound of Synthetic Example 2 in each composition was measured using HPLC (20A manufactured by Shimadzu Corporation).

In the case of `CCCCCCCCCC(=O)N1CCC[C@H]1C(=O)[O-].[Na+]` [Example 1, decanoyl proline sodium salt], the hygroscopicity result in series [1] was “⊙ (value of A is not less than 15%)”. Moreover, the water retention ability entry in series [2] is reported as “⊙ (value of R is not less than 80%)”. Moreover, the “decomposition rate of decanoyl proline Na” value in series [3] (etidronate added to 0.1 wt %) amounted to 0.8%; in series [3] (etidronate not added), 2.4%. Regarding `C[N+](C)(C)CC(=O)O` [compound 1, betaine], the hygroscopicity result in series [1] was “⊙ (value of A is not less than 15%)”. The water retention ability entry in series [2] is “Δ (value of R is not less than 40% and less than 60%)”. `CC(O)C(=O)[O-].[Na+]` (stereo not drawn) [compound 2, sodium lactate]: in series [1], the hygroscopicity result was “⊙ (value of A is not less than 15%)”. Take `O=C1CCC(C(=O)[O-])N1.[Na+]` (stereo not drawn) [compound 3, sodium pyrrolidonecarboxylate]: the hygroscopicity result in series [1] was “⊙ (value of A is not less than 15%)”. For `OCC(O)CO` [compound 4, glycerol], the hygroscopicity entry in series [1] was “⊙ (value of A is not less than 15%)”.
